# Experiments:
# Experiment in all cases: drug sensitivity score (DSS) from 5-dose viability curve (DSS (area-based score, 0 = no response)); higher = more sensitive (stronger viability inhibition); extreme values may be limits of the assay
# [1] = tested on: MDCK wild-type - doxycycline; conditions: doxycycline: none; 72 h
# Outline: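 Drug sensitivity scores came from Breeze pipeline dose-response fits of CellTiter-Glo luminescence, scaled per plate between vehicle and positive controls. The assay used parental MDCK cells without doxycycline at 2000 cells/well, exposed for 72 h to 528 oncology drugs at five doses (1-10,000 nM).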
# [2] = tested on: MDCK p60AmotL2-inducible + doxycycline (p60AmotL2 expressing); conditions: doxycycline: 10 ng/mL; 72 h
# Outline: (§1)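 Two MDCK lines, parental and doxycycline-inducible, received doxycycline at 10 ng/mL in the medium before being plated at 2000 cells/well onto a pre-spotted 384-well oncology library of 528 drugs at five doses (1-10,000 nM). Incubation lasted 72 h at 37 °C. Viability was read by CellTiter-Glo luminescence, scaled per plate between vehicle and positive controls, and converted to drug sensitivity scores through Breeze curve fitting.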
# [3] = tested on: MDCK wild-type + doxycycline; conditions: doxycycline: 10 ng/mL; 72 h
# Outline: as §1
SMILES,drug sensitivity score [1],drug sensitivity score [2],drug sensitivity score [3]
COc1cccc(-c2ccc(NC(=O)C3=C(C(=O)O)CCC3)c(F)c2)c1 [Vidofludimus],0.4,1.2,0.6
FC(F)(F)c1ccc(CNc2ccc(Cc3c[nH]c4ncc(Cl)cc34)cn2)cn1 [Pexidartinib],0,0.1,0
CS(=O)(=O)c1ccc(C(=O)Nc2ccc(Cl)c(-c3ccccn3)c2)c(Cl)c1 [Vismodegib],0,0,0
O=c1ncn2nc(Sc3ccc(F)cc3F)ccc2c1-c1c(Cl)cccc1Cl [Neflamapimod],0,0,0
Cc1cc(Nc2ncc(Cl)c(Nc3ccccc3S(=O)(=O)C(C)C)n2)c(OC(C)C)cc1C1CCNCC1 [Ceritinib],0,0,0.6
CC1(C)CCC(c2ccc(Cl)cc2)=C(CN2CCN(c3ccc(C(=O)NS(=O)(=O)c4ccc(N[C@H](CCN5CCOCC5)CSc5ccccc5)c(S(=O)(=O)C(F)(F)F)c4)cc3)CC2)C1 [Navitoclax],0.8,0,0.9
N#Cc1ccc2[nH]c(O)c(-c3ccc(CN4CCOCC4)cn3)c2c1 [AZD-1080],0,0,0
CCn1c(=O)c(-c2ccc(Cl)cc2Cl)cc2cnc(Nc3ccc(N4CCNCC4)c(F)c3)nc21 [FRAX486],1.7,2.3,0
CCn1c(C(=O)N(C2CC2)C2CC2)cc2c3c(ncn3C)c(Nc3cc(C)n(C)n3)nc21,0,0,0
Cc1cc(Nc2cc(N3CCN(C)CC3)nc(Sc3ccc(NC(=O)C4CC4)cc3)n2)n[nH]1 [Tozasertib],1.4,8.6,4.2
CCN1CCN(Cc2ccc(Nc3ncc(F)c(-c4cc(F)c5nc(C)n(C(C)C)c5c4)n3)nc2)CC1 [Abemaciclib],3.3,7.3,5.6
FC(F)c1nc2ccccc2n1-c1nc(N2CCOCC2)nc(N2CCOCC2)n1 [ZSTK474],4.7,10.3,7.2
CN(C)C1CCN(C(=O)c2ccc(NC(=O)Nc3ccc(-c4nc(N5CCOCC5)nc(N5CCOCC5)n4)cc3)cc2)CC1 [Gedatolisib],0,5.2,1.9
CCN1C(=O)CNc2ncc(-c3ccc(-c4nc[nH]n4)nc3C)nc21 [CC-115],8.9,9.4,7.8
CC(=O)c1c(C)c2cnc(Nc3ccc(N4CCNCC4)cn3)nc2n(C2CCCC2)c1=O [Palbociclib],0.9,4.3,0.9
CNS(=O)(=O)Nc1nccc(Cc2c(C)c3ccc(Oc4ncccn4)cc3oc2=O)c1F,0,2.3,0.5
COc1cc2ncnc(Nc3cccc(Cl)c3F)c2cc1OC(=O)N1CCN(C)C[C@H]1C [AZD3759],0,6.6,0
CNC(=O)c1ccccc1Nc1nc(Nc2ccc3c(c2OC)CCC[C@H](N2CCN(CCO)CC2)C3)ncc1Cl,6.8,8.8,6.2
CNC(=O)c1ccc(C)c(-n2c(C)cc(OCc3ccc(F)cc3F)c(Br)c2=O)c1,0,0,0

SMILES,drug sensitivity score [1],drug sensitivity score [2],drug sensitivity score [3]
CCCCCOC(=O)Nc1nc(=O)n([C@@H]2O[C@H](C)[C@@H](O)[C@H]2O)cc1F [Capecitabine],5.1,7.1,7
COc1cc2nccc(Oc3ccc(NC(=O)Nc4cc(C)on4)c(Cl)c3)c2cc1OC [Tivozanib],2.5,4.4,8.2
CC(C)(O)CNc1nc(Nc2ccnc(C(F)(F)F)c2)nc(-c2cccc(C(F)(F)F)n2)n1 [Enasidenib],0,0,0
Cc1c(Cn2c(C)nc3c(C(=O)O)cc(N4CCOCC4)cc32)cccc1C(F)(F)F,0,0,0
Cc1noc2c1-c1ccccc1C(c1ccc(Cl)cc1)=N[C@H]2CC(N)=O [CPI-0610],3.1,10.9,4.8
CNC(=O)c1ccc(N2C(=S)N(c3cnc(C#N)c(C(F)(F)F)c3)C(=O)C23CCC3)cc1F [Apalutamide],0,0,0
CCOc1ccccc1-n1c(C(C)N2CCN(C(=O)COc3ccc(Cl)cc3)CC2)nc2ccccc2c1=O (centres undefined) [Erastin],0,0,0
N#CC(c1ccnc(OCc2ccc(CN3CCOCC3)cc2)n1)c1nc2ccccc2s1 (centres undefined) [Bentamapimod],1.2,2.1,1.5
CC#CC(=O)N1CC[C@@H](n2c(=O)n(-c3ccc(Oc4ccccc4)cc3)c3c(N)ncnc32)C1 [Tirabrutinib],0,4,0.8
CN(C)Cc1ccc(S(=O)(=O)n2ccc(/C=C/C(=O)NO)c2)cc1 [Resminostat],5,10.4,8.8
CC(C)(C)c1cnc(CSc2cnc(NC(=O)C3CCNCC3)s2)o1 [SNS-032],16.3,19.1,17.8
O=c1[nH]c(=O)n([C@H]2C[C@H](O)[C@@H](CO)O2)cc1F [Floxuridine],18.2,22.7,21.7
O=C(Nc1c[nH]nc1-c1nc2ccc(CN3CCOCC3)cc2[nH]1)NC1CC1 [AT9283],0,6.5,2
O=C(Nc1cc(Cl)cc2c1[nH]c1cnccc12)c1cccnc1 [PS-1145],0,0,0
Cc1ccc(NS(=O)(=O)c2cccc(C#N)c2)c2[nH]cc(C#N)c12 [E7820],14.5,20.4,19.9
O=C(CCNC(=O)c1ccc(OC(F)(F)F)cc1)N[C@@H]1CCCc2ccccc21 [ML390],13.8,18.3,14.5
Nc1nc(Cl)nc2c1ncn2[C@H]1C[C@H](O)[C@@H](CO)O1 [Cladribine],1.2,2.3,2.3
COc1cc(OC)cc(N(CCNC(C)C)c2ccc3ncc(-c4cnn(C)c4)nc3c2)c1 [Erdafitinib],0,0,0
Cc1ccc(=O)n(-c2ccccc2)c1 [Pirfenidone],0,0,0

# Source: the supplement of paper PMC11003180
